The values that follow come from paper PMC3525792 (Bioorganic & medicinal chemistry letters, 2012).

In this experiment the target is EGFP-hSERT (UniProt P31645+P42212, F64L/H231L/S65T). It is filed as cell-based, human.

Take `CCN(CC)c1ccc2c(-c3ccc(S(=O)(=O)NCCCCCC(=O)NCCC(=O)Nc4cccc(-c5ccc6c(c5)COC6(CCCN(C)C)c5ccc(F)cc5)c4)cc3S(=O)(=O)[O-])c3ccc(=[N+](CC)CC)cc-3oc2c1` (centres unmarked) [compound 8]: the “labeling of EGFP-SERT in live cells in the presence of paroxetine” value (20 nM 8, 37°C, preincubation with 1 μM paroxetine 30 min) was “no fluorescence was observed at the cell surface in the red channel”. For the setting “20 nM 8, 60 min at 37°C, HEK293 EGFP-hSERT, without paroxetine”, the “labeling of EGFP-SERT in live cells” value was “labels SERT with high specificity”.
